The values below come from PubChem BioAssay AID284 (DTP/NCI, 2004).

The experiment concerns BDF1 mice, L1210/MTX-resistant leukemia ip, survival T/C. Description: NCI In Vivo Anticancer Drug Screen. Data for tumor model L1210 Leukemia resistant to Methotrexate; NSC 740 (intraperitoneal) in B6D2F1 (BDF1) mice. The note with it: endpoint: mean survival time, higher = longer survival. How it is done:
The antitumor activity of compounds was measured in mice bearing transplantable tumors. Survival or tumor size were measured and the results are expressed as the measurement made in the treated group (T) divided by the measurement made in the vehicle treated control group (C). The tumor model used in this assay is L1210 Leukemia resistant to Methotrexate; NSC 740 (intraperitoneal) in B6D2F1 (BDF1) mice

[1] abbreviates: dose: 20.0 mg/kg/injection, schedule: Q01DX Z (ip), vehicle: carboxymethylcellulose (CMC).
Setting [2] is: dose: 200.0 mg/kg/injection, schedule: Q01DX010 (ip), vehicle: saline.
Setting [3] is: dose: 10.0 mg/kg/injection, schedule: Q01DX Z (ip), vehicle: saline.

Each structure is given as a SMILES string. “And” between values parts separate entries of the source, which are not always exact repeats. Identical values can stand only once. Toxic doses and inconclusive results are not listed.

On to `Nc1nc(N)c2nc(CNc3ccc(C(=O)NC(CCC(=O)O)C(=O)O)cc3)cnc2n1` (stereo not given), for which the T/C runs as follows: (dose: 0.05 mg/kg/injection, schedule: Q01DX010 (ip), vehicle: other) 90 % of control; (dose: 0.1 mg/kg/injection, schedule: Q01DX010 (ip), vehicle: other) 102 % of control and 103 % of control; (dose: 0.2 mg/kg/injection, schedule: Q01DX010 (ip), vehicle: other) 92 % of control and 104 % of control; (dose: 0.4 mg/kg/injection, schedule: Q01DX010 (ip), vehicle: other) 89 % of control.
Regarding `C[C@]12CC[C@H](OC3OC(CO)C(O)C(O)C3O)C[C@H]1CC[C@@H]1[C@@H]2CC[C@]2(C)[C@@H](C3=CCOC3=O)CC[C@]12O` (stereo not given in full), under “dose: 1.0 mg/kg/injection, schedule: Q01DX Z (ip), vehicle: saline”, the T/C was 86 % of control.
As for `S=P(N1CCOCC1)(N1CC1)N1CC1`, the T/C (dose: 2.0 mg/kg/injection, schedule: Q01DX Z (ip), vehicle: carboxymethylcellulose (CMC)) is 92 % of control; the T/C (dose: 6.0 mg/kg/injection, schedule: Q01DX Z (ip), vehicle: carboxymethylcellulose (CMC)) is 93 % of control; the T/C (dose: 8.0 mg/kg/injection, schedule: Q01DX Z (ip), vehicle: carboxymethylcellulose (CMC)) was 92 % of control; the T/C (dose: 10.0 mg/kg/injection, schedule: Q01DX Z (ip), vehicle: carboxymethylcellulose (CMC)) is 96 % of control; the T/C under setting [1] was 95 % of control.
Regarding `CC(=O)O[C@]1(C(C)=O)CC[C@H]2[C@@H]3C[C@H](C)C4=CC(=O)C=C[C@]4(C)[C@@]3(F)[C@@H](O)C[C@@]21C`, the T/C (dose: 0.62 mg/kg/injection, schedule: Q01DX Z (sc), vehicle: steriod suspending solution) is 96 % of control; the T/C (dose: 1.25 mg/kg/injection, schedule: Q01DX Z (sc), vehicle: steriod suspending solution) is 97 % of control; the T/C (dose: 2.5 mg/kg/injection, schedule: Q01DX Z (sc), vehicle: steriod suspending solution) was 100 % of control; the T/C (dose: 5.0 mg/kg/injection, schedule: Q01DX Z (sc), vehicle: steriod suspending solution) was 101 % of control; the T/C (dose: 12.5 mg/kg/injection, schedule: Q01DX010 (sc), vehicle: steriod suspending solution) is 101 % of control; the T/C (dose: 25.0 mg/kg/injection, schedule: Q01DX010 (sc), vehicle: steriod suspending solution) is 100 % of control. Also, the T/C (dose: 37.5 mg/kg/injection, schedule: Q01DX Z (sc), vehicle: steriod suspending solution) was 150 % of control; the T/C (dose: 50.0 mg/kg/injection, schedule: Q01DX010 (sc), vehicle: steriod suspending solution) is 88 % of control; the T/C (dose: 100.0 mg/kg/injection, schedule: Q01DX010 (sc), vehicle: steriod suspending solution) was 88 % of control.
For the molecule `CCN(CC)CCNc1ccc(C)c2sc3ccccc3c(=O)c12`, the T/C (dose: 1.6 mg/kg/injection, schedule: Q01DX Z (ip), vehicle: methylcellulose (MC)) is 89 % of control and 93 % of control; the T/C (dose: 3.2 mg/kg/injection, schedule: Q01DX Z (ip), vehicle: methylcellulose (MC)) was 93 % of control; the T/C (dose: 6.3 mg/kg/injection, schedule: Q01DX Z (ip), vehicle: methylcellulose (MC)) was 93 % of control; the T/C under setting [1] was 112 % of control; the T/C (dose: 25.0 mg/kg/injection, schedule: Q01DX010 (ip), vehicle: saline) is 159 % of control; the T/C (dose: 40.0 mg/kg/injection, schedule: Q01DX Z (ip), vehicle: carboxymethylcellulose (CMC)) is 106 % of control. The T/C is 124 % of control (dose: 50.0 mg/kg/injection, schedule: Q01DX010 (ip), vehicle: saline); 113 % of control (dose: 80.0 mg/kg/injection, schedule: Q01DX Z (ip), vehicle: carboxymethylcellulose (CMC)); 213 % of control (dose: 100.0 mg/kg/injection, schedule: Q01DX010 (ip), vehicle: saline); 86 % of control under setting [2].
As to `Nc1nc2n[nH]nc2c(=O)[nH]1`, the T/C was 92 % of control (dose: 25.0 mg/kg/injection, schedule: Q01DX010 (ip), vehicle: alkali diluted with saline); 120 % of control (dose: 25.0 mg/kg/injection, schedule: Q01DX Z (ip), vehicle: water); 94 % of control and 99 % of control (dose: 50.0 mg/kg/injection, schedule: Q01DX010 (ip), vehicle: alkali diluted with saline); 106 % of control (dose: 50.0 mg/kg/injection, schedule: Q01DX Z (ip), vehicle: other); 120 % of control (dose: 50.0 mg/kg/injection, schedule: Q01DX Z (ip), vehicle: water); 90 % of control and 91 % of control (dose: 100.0 mg/kg/injection, schedule: Q01DX010 (ip), vehicle: alkali diluted with saline). Moreover, the T/C was 101 % of control (dose: 100.0 mg/kg/injection, schedule: Q01DX Z (ip), vehicle: other); 88 % of control and 98 % of control (dose: 200.0 mg/kg/injection, schedule: Q01DX010 (ip), vehicle: alkali diluted with saline); 107 % of control (dose: 200.0 mg/kg/injection, schedule: Q01DX Z (ip), vehicle: water); 94 % of control (dose: 350.0 mg/kg/injection, schedule: Q01DX Z (ip), vehicle: water).
For the molecule `O=C(Nc1ccc(C2=NCCN2)cc1)c1ccc(C(=O)Nc2ccc(C3=NCCN3)cc2)c(Cl)c1`, the T/C by setting is: (dose: 1.9 mg/kg/injection, schedule: Q01DX Z (ip), vehicle: other) 88 % of control; (dose: 2.0 mg/kg/injection, schedule: Q01DX010 (ip), vehicle: other) 122 % of control; (dose: 3.8 mg/kg/injection, schedule: Q01DX Z (ip), vehicle: other) 94 % of control; (dose: 7.5 mg/kg/injection, schedule: Q01DX Z (ip), vehicle: other) 97 % of control; (dose: 8.0 mg/kg/injection, schedule: Q01DX010 (ip), vehicle: other) 170 % of control; (dose: 8.5 mg/kg/injection, schedule: Q02DX010 (ip), vehicle: carboxymethylcellulose (CMC)) 123 % of control. Besides, the T/C was 118 % of control and 110 % of control under setting [3]; 97 % of control (dose: 15.0 mg/kg/injection, schedule: Q01DX Z (ip), vehicle: other); 177 % of control and 221 % of control (dose: 16.0 mg/kg/injection, schedule: Q01DX010 (ip), vehicle: other); 124 % of control (dose: 20.0 mg/kg/injection, schedule: Q01DX Z (ip), vehicle: other); 101 % of control (dose: 30.0 mg/kg/injection, schedule: Q01DX Z (ip), vehicle: other); 192 % of control (dose: 30.0 mg/kg/injection, schedule: Q02DX010 (ip), vehicle: carboxymethylcellulose (CMC)). For the same molecule, the T/C is, setting by setting: (dose: 32.0 mg/kg/injection, schedule: Q01DX010 (ip), vehicle: other) 250 % of control and 274 % of control; (dose: 40.0 mg/kg/injection, schedule: Q01DX Z (ip), vehicle: other) 95 % of control; (dose: 45.0 mg/kg/injection, schedule: Q02DX010 (ip), vehicle: carboxymethylcellulose (CMC)) 190 % of control; (dose: 80.0 mg/kg/injection, schedule: Q01DX Z (ip), vehicle: other) 91 % of control; (dose: 80.0 mg/kg/injection, schedule: Q01DX Z (ip), vehicle: saline) 88 % of control.
With `CN(C)CC(=O)c1ccc(O)c(O)c1`, the T/C is 117 % of control under setting [2]; 109 % of control (dose: 300.0 mg/kg/injection, schedule: Q01DX010 (ip), vehicle: saline); 104 % of control (dose: 450.0 mg/kg/injection, schedule: Q01DX010 (ip), vehicle: saline); 111 % of control (dose: 675.0 mg/kg/injection, schedule: Q01DX010 (ip), vehicle: saline).
Consider `CS(=O)(=O)OCCCl`, for which the T/C was 107 % of control (dose: 7.5 mg/kg/injection, schedule: Q01DX Z (ip), vehicle: saline); 111 % of control under setting [3]; 109 % of control (dose: 15.0 mg/kg/injection, schedule: Q01DX Z (ip), vehicle: saline); 111 % of control (dose: 20.0 mg/kg/injection, schedule: Q01DX Z (ip), vehicle: saline); 86 % of control (dose: 50.0 mg/kg/injection, schedule: Q01DX Z (ip), vehicle: saline).
Turning to `Cc1c(O)ccc(=O)n1O`, the T/C was 98 % of control (dose: 49.0 mg/kg/injection, schedule: Q01DX Z (ip), vehicle: other); 86 % of control (dose: 73.0 mg/kg/injection, schedule: Q01DX Z (ip), vehicle: other); 114 % of control (dose: 110.0 mg/kg/injection, schedule: Q01DX Z (ip), vehicle: other); 110 % of control (dose: 165.0 mg/kg/injection, schedule: Q01DX Z (ip), vehicle: other); 96 % of control (dose: 247.0 mg/kg/injection, schedule: Q01DX Z (ip), vehicle: other).
